According to ChEMBL document CHEMBL1671673, “In vitro activity of colistin (polymyxin E) against 3,480 isolates of gram-negative bacilli obtained from patients in Canadian hospitals in the CANWARD study, 2007-2008” (Antimicrob Agents Chemother, 2009):

Legend:
Assay type in all cases: functional, organism-based
Set-up in all cases: scale not given: the % may be the effect or the level left
Proteus mirabilis = experiment: Antibacterial activity against Proteus mirabilis assessed as susceptible isolates at minimum inhibitory concentration of >16 ug/ml by CLSI broth microdilution method
[1] = test system: Stenotrophomonas maltophilia; experiment: Antibacterial activity against Stenotrophomonas maltophilia assessed as susceptible isolates at minimum inhibitory concentration of 2 ug/ml by CLSI broth microdilution method
Escherichia coli [2] = experiment: Antibacterial activity against ESBL-producing Escherichia coli assessed as susceptible isolates at minimum inhibitory concentration of 2 ug/ml by CLSI broth microdilution method
Escherichia coli [3] = experiment: Antibacterial activity against ESBL-producing Escherichia coli assessed as susceptible isolates at minimum inhibitory concentration of 0.5 ug/ml by CLSI broth microdilution method
Klebsiella aerogenes [4] = experiment: Antibacterial activity against Enterobacter aerogenes assessed as susceptible isolates at minimum inhibitory concentration of <=0.06 ug/ml by CLSI broth microdilution method
Enterobacter cloacae [5] = experiment: Antibacterial activity against Enterobacter cloacae assessed as susceptible isolates at minimum inhibitory concentration of <=0.06 ug/ml by CLSI broth microdilution method
Pseudomonas aeruginosa [6] = experiment: Antibacterial activity against Levofloxacin-resistant Pseudomonas aeruginosa assessed as susceptible isolates at minimum inhibitory concentration of >16 ug/ml by CLSI broth microdilution method
Pseudomonas aeruginosa [7] = experiment: Antibacterial activity against Cefepime-resistant Pseudomonas aeruginosa assessed as susceptible isolates at minimum inhibitory concentration of 1 ug/ml by CLSI broth microdilution method
Enterobacter cloacae [8] = experiment: Antibacterial activity against Enterobacter cloacae assessed as susceptible isolates at minimum inhibitory concentration of 16 ug/ml by CLSI broth microdilution method
Klebsiella aerogenes [9] = experiment: Antibacterial activity against Enterobacter aerogenes assessed as susceptible isolates at minimum inhibitory concentration of 4 ug/ml by CLSI broth microdilution method
Enterobacter cloacae [10] = experiment: Antibacterial activity against Enterobacter cloacae assessed as susceptible isolates at minimum inhibitory concentration of 0.25 ug/ml by CLSI broth microdilution method
[11] = test system: Stenotrophomonas maltophilia; experiment: Antibacterial activity against Stenotrophomonas maltophilia assessed as susceptible isolates at minimum inhibitory concentration of <=0.06 ug/ml by CLSI broth microdilution method
Enterobacter cloacae [12] = experiment: Antibacterial activity against Enterobacter cloacae assessed as susceptible isolates at minimum inhibitory concentration of 2 ug/ml by CLSI broth microdilution method
Enterobacter cloacae [13] = experiment: Antibacterial activity against Enterobacter cloacae assessed as susceptible isolates at minimum inhibitory concentration of 0.5 ug/ml by CLSI broth microdilution method
Acinetobacter baumannii = experiment: Antibacterial activity against Acinetobacter baumannii assessed as susceptible isolates at minimum inhibitory concentration of 0.5 ug/ml by CLSI broth microdilution method
Pseudomonas aeruginosa [14] = experiment: Antibacterial activity against Piperacillin-resistant Pseudomonas aeruginosa assessed as susceptible isolates at minimum inhibitory concentration of 0.5 ug/ml by CLSI broth microdilution method
Pseudomonas aeruginosa [15] = experiment: Antibacterial activity against Pseudomonas aeruginosa assessed as susceptible isolates at minimum inhibitory concentration of 0.5 ug/ml by CLSI broth microdilution method
Pseudomonas aeruginosa [16] = experiment: Antibacterial activity against MDR Pseudomonas aeruginosa assessed as susceptible isolates at minimum inhibitory concentration of 0.5 ug/ml by CLSI broth microdilution method
[17] = test system: Stenotrophomonas maltophilia; experiment: Antibacterial activity against Stenotrophomonas maltophilia assessed as susceptible isolates at minimum inhibitory concentration of 0.12 ug/ml by CLSI broth microdilution method
Pseudomonas aeruginosa [18] = experiment: Antibacterial activity against Pseudomonas aeruginosa assessed as susceptible isolates at minimum inhibitory concentration of 4 ug/ml by CLSI broth microdilution method
Enterobacter cloacae [19] = experiment: Antibacterial activity against Enterobacter cloacae assessed as susceptible isolates at minimum inhibitory concentration of 8 ug/ml by CLSI broth microdilution method
Pseudomonas aeruginosa [20] = experiment: Antibacterial activity against Pseudomonas aeruginosa assessed as susceptible isolates at minimum inhibitory concentration of 1 ug/ml by CLSI broth microdilution method
Pseudomonas aeruginosa [21] = experiment: Antibacterial activity against Ciprofloxacin-resistant Pseudomonas aeruginosa assessed as susceptible isolates at minimum inhibitory concentration of 8 ug/ml by CLSI broth microdilution method
Klebsiella pneumoniae [22] = experiment: Antibacterial activity against ESBL-producing Klebsiella pneumoniae assessed as susceptible isolates at minimum inhibitory concentration of 8 ug/ml by CLSI broth microdilution method
Klebsiella aerogenes [23] = experiment: Antibacterial activity against Enterobacter aerogenes assessed as susceptible isolates at minimum inhibitory concentration of 0.5 ug/ml by CLSI broth microdilution method
Klebsiella pneumoniae [24] = experiment: Antibacterial activity against ESBL-producing Klebsiella pneumoniae assessed as susceptible isolates at minimum inhibitory concentration of 0.25 ug/ml by CLSI broth microdilution method
Serratia marcescens = experiment: Antibacterial activity against Serratia marcescens assessed as susceptible isolates at minimum inhibitory concentration of 16 ug/ml by CLSI broth microdilution method
Pseudomonas aeruginosa [25] = experiment: Antibacterial activity against Meropenem-resistant Pseudomonas aeruginosa assessed as susceptible isolates at minimum inhibitory concentration of 1 ug/ml by CLSI broth microdilution method
Pseudomonas aeruginosa [26] = experiment: Antibacterial activity against Gentamicin-resistant Pseudomonas aeruginosa assessed as susceptible isolates at minimum inhibitory concentration of 4 ug/ml by CLSI broth microdilution method
Pseudomonas aeruginosa [27] = experiment: Antibacterial activity against MDR3 Pseudomonas aeruginosa assessed as susceptible isolates at minimum inhibitory concentration of 0.5 ug/ml by CLSI broth microdilution method
Klebsiella aerogenes [28] = experiment: Antibacterial activity against Enterobacter aerogenes assessed as susceptible isolates at minimum inhibitory concentration of 0.12 ug/ml by CLSI broth microdilution method
Pseudomonas aeruginosa [29] = experiment: Antibacterial activity against Piperacillin-resistant Pseudomonas aeruginosa assessed as susceptible isolates at minimum inhibitory concentration of 1 ug/ml by CLSI broth microdilution method
Pseudomonas aeruginosa [30] = experiment: Antibacterial activity against Pseudomonas aeruginosa assessed as susceptible isolates at minimum inhibitory concentration of 0.12 ug/ml by CLSI broth microdilution method

Sequence COLISTIN has an Activity (Proteus mirabilis) of 100%, an Activity [1] of 15.7% and an Activity (Escherichia coli [2]) of 99.4%. For the same sequence, the Activity (Escherichia coli [3]) was 82.4%, the Activity (Klebsiella aerogenes [4]) was 0% and the Activity (Enterobacter cloacae [5]) was 0%. For the same sequence, the Activity (Pseudomonas aeruginosa [6]) was 100%, the Activity (Pseudomonas aeruginosa [7]) was 39.7% and the Activity (Enterobacter cloacae [8]) was 88.2%. The Activity (Klebsiella aerogenes [9]) was 100%, the Activity (Enterobacter cloacae [10]) was 14% and the Activity [11] was 0%. The Activity (Enterobacter cloacae [12]) was 83.9%, the Activity (Enterobacter cloacae [13]) was 69.9% and the Activity (Acinetobacter baumannii) was 6.5%. It also gave an Activity (Pseudomonas aeruginosa [14]) of 1.8%, an Activity (Pseudomonas aeruginosa [15]) of 2.5% and an Activity (Pseudomonas aeruginosa [16]) of 5.3%. It also gave an Activity [17] of 0%, an Activity (Pseudomonas aeruginosa [18]) of 98.9% and an Activity (Enterobacter cloacae [19]) of 85.5%. The Activity (Pseudomonas aeruginosa [20]) was 29.1%, the Activity (Pseudomonas aeruginosa [21]) was 98.6% and the Activity (Klebsiella pneumoniae [22]) was 97.9%. It also gave an Activity (Klebsiella aerogenes [23]) of 73%, an Activity (Klebsiella pneumoniae [24]) of 10.5% and an Activity (Serratia marcescens) of 1.9%. For the same sequence, the Activity (Pseudomonas aeruginosa [25]) was 33.3%, the Activity (Pseudomonas aeruginosa [26]) was 99% and the Activity (Pseudomonas aeruginosa [27]) was 4%. The Activity (Klebsiella aerogenes [28]) was 0%, the Activity (Pseudomonas aeruginosa [29]) was 37.5% and the Activity (Pseudomonas aeruginosa [30]) was 0%.
